# Experimental data reported in PubChem BioAssay AID256 (DTP/NCI, 2004).
# “And” between values parts separate entries of the source, which are not always exact repeats. Equal entries are not always repeated. Toxic doses and inconclusive results are not listed.
# System: CD2F1 mice, L1210 leukemia ip, survival T/C
# Assay: NCI In Vivo Anticancer Drug Screen. Data for tumor model L1210 Leukemia (intraperitoneal) in CD2F1 (CDF1) mice
# Conditions: higher = longer survival
# In short: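 Read-out first: treated-group measurement over vehicle-control measurement, expressed as a ratio. Animals bore a transplanted tumor line and were dosed with compound or vehicle.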
# [1] = endpoint: mean survival time, dose: 12.5 mg/kg/injection, schedule: Q04DX003 (ip), vehicle: distilled water + Tween-80
# [2] = endpoint: mean survival time, dose: 100.0 mg/kg/injection, schedule: Q01DX009 (ip), vehicle: saline with Tween-80
# [3] = endpoint: mean survival time, dose: 100.0 mg/kg/injection, schedule: Q04DX003 (ip), vehicle: saline with Tween-80
# [4] = endpoint: mean survival time, dose: 200.0 mg/kg/injection, schedule: Q01DX009 (ip), vehicle: saline with Tween-80
# [5] = endpoint: mean survival time, dose: 200.0 mg/kg/injection, schedule: Q04DX003 (ip), vehicle: saline with Tween-80
# [6] = endpoint: mean survival time, dose: 400.0 mg/kg/injection, schedule: Q01DX009 (ip), vehicle: saline with Tween-80
# [7] = endpoint: mean survival time, dose: 400.0 mg/kg/injection, schedule: Q04DX003 (ip), vehicle: saline with Tween-80
# [8] = endpoint: median survival time, dose: 25.0 mg/kg/injection, schedule: Q01DX005 (ip), vehicle: Klucel (hydroxypropylcellulose) (HPC)
# [9] = endpoint: median survival time, dose: 50.0 mg/kg/injection, schedule: Q01DX005 (ip), vehicle: Klucel (hydroxypropylcellulose) (HPC)
# [10] = endpoint: median survival time, dose: 100.0 mg/kg/injection, schedule: Q01DX005 (ip), vehicle: Klucel (hydroxypropylcellulose) (HPC)
structure (smiles),measurement,setting,value
O.[Cl][Pt].[S-]CCN1CCOCC1,T/C,[1],96 % of control
same,T/C,"endpoint: mean survival time, dose: 25.0 mg/kg/injection, schedule: Q04DX003 (ip), vehicle: distilled water + Tween-80",98 % of control
same,T/C,"endpoint: mean survival time, dose: 50.0 mg/kg/injection, schedule: Q04DX003 (ip), vehicle: distilled water + Tween-80",102 % of control
same,T/C,"endpoint: mean survival time, dose: 100.0 mg/kg/injection, schedule: Q04DX003 (ip), vehicle: distilled water + Tween-80",98 % of control
same,T/C,"endpoint: mean survival time, dose: 200.0 mg/kg/injection, schedule: Q04DX003 (ip), vehicle: distilled water + Tween-80",96 % of control
Cc1ccc(/C=C/C(=O)/C=C/c2ccc(C)o2)o1,T/C,"endpoint: median survival time, dose: 25.0 mg/kg/injection, schedule: Q01DX005 (ip), vehicle: saline with Tween-80",98 % of control
same,T/C,"endpoint: median survival time, dose: 50.0 mg/kg/injection, schedule: Q01DX005 (ip), vehicle: saline with Tween-80",92 % of control
same,T/C,"endpoint: median survival time, dose: 100.0 mg/kg/injection, schedule: Q01DX005 (ip), vehicle: saline with Tween-80",100 % of control
same,T/C,"endpoint: median survival time, dose: 200.0 mg/kg/injection, schedule: Q01DX005 (ip), vehicle: saline with Tween-80",103 % of control
same,T/C,"endpoint: median survival time, dose: 400.0 mg/kg/injection, schedule: Q01DX005 (ip), vehicle: saline with Tween-80",98 % of control
CC(C)NC(=O)c1ccc(N/N=[N+](/C)[O-])cc1,T/C,"endpoint: mean survival time, dose: 6.25 mg/kg/injection, schedule: Q01DX005 (ip), vehicle: saline with Tween-80",98 % of control
same,T/C,"endpoint: mean survival time, dose: 12.5 mg/kg/injection, schedule: Q01DX005 (ip), vehicle: saline with Tween-80",100 % of control
same,T/C,"endpoint: mean survival time, dose: 25.0 mg/kg/injection, schedule: Q01DX005 (ip), vehicle: saline with Tween-80",107 % of control
same,T/C,"endpoint: mean survival time, dose: 50.0 mg/kg/injection, schedule: Q01DX005 (ip), vehicle: saline with Tween-80",100 % of control
same,T/C,"endpoint: mean survival time, dose: 100.0 mg/kg/injection, schedule: Q01DX005 (ip), vehicle: saline with Tween-80",109 % of control
same,T/C,[2],107 % of control
same,T/C,[3],94 % of control
same,T/C,[4],110 % of control
same,T/C,[5],100 % of control
same,T/C,[6],117 % of control
same,T/C,[7],110 % of control
CN1C2C=CC(=O)C1C1C(=O)N(c3ccccc3)C(=O)C12 (stereo not drawn),T/C,"endpoint: median survival time, dose: 12.5 mg/kg/injection, schedule: Q01DX005 (ip), vehicle: Klucel (hydroxypropylcellulose) (HPC)",93 % of control
same,T/C,[8],98 % of control
same,T/C,[9],93 % of control
same,T/C,[10],94 % of control
same,T/C,"endpoint: median survival time, dose: 200.0 mg/kg/injection, schedule: Q01DX005 (ip), vehicle: Klucel (hydroxypropylcellulose) (HPC)",95 % of control
O=c1[nH]c(=S)[nH]c(-c2ccccc2)c1Cc1c(O)ccc2ccccc12,T/C,"endpoint: mean survival time, dose: 100.0 mg/kg/injection, schedule: Q01DX001 (ip), vehicle: saline",101 % of control
same,T/C,"endpoint: mean survival time, dose: 200.0 mg/kg/injection, schedule: Q01DX001 (ip), vehicle: saline",100 % of control
same,T/C,"endpoint: mean survival time, dose: 400.0 mg/kg/injection, schedule: Q01DX001 (ip), vehicle: saline",97 % of control
O=[N+]([O-])c1c[nH]n2c([N+](=O)[O-])cnc12,T/C,"endpoint: mean survival time, dose: 12.5 mg/kg/injection, schedule: Q01DX009 (ip), vehicle: water",96 % of control
same,T/C,"endpoint: mean survival time, dose: 25.0 mg/kg/injection, schedule: Q01DX009 (ip), vehicle: water",97 % of control
ClCC1(CCl)COC(c2ccccc2)OC1,T/C,[2],95 % of control
same,T/C,[4],95 % of control
same,T/C,[6],94 % of control
CCN(C(=O)Nc1ccc(OC)cc1)c1ccccc1,T/C,[3],98 % of control
same,T/C,[5],95 % of control
Cn1nc(-c2ccccc2)nc1[N+](=O)[O-],T/C,"endpoint: mean survival time, dose: 12.5 mg/kg/injection, schedule: Q01DX009 (ip), vehicle: saline with Tween-80",90 % of control and 103 % of control
same,T/C,"endpoint: mean survival time, dose: 25.0 mg/kg/injection, schedule: Q01DX009 (ip), vehicle: saline with Tween-80",97 % of control
same,T/C,"endpoint: mean survival time, dose: 50.0 mg/kg/injection, schedule: Q01DX009 (ip), vehicle: saline with Tween-80",103 % of control and 106 % of control
same,T/C,[2],121 % of control and 100 % of control
CC(=O)Nc1ccc2c(c1)C(P(=O)(OC(C)C)OC(C)C)c1ccccc1-2 (stereo not drawn),T/C,[3],95 % of control
same,T/C,[5],95 % of control
same,T/C,[7],92 % of control
O=C(O)CN(CC(=O)O)C1CCCCC1N(CC(=O)O)CC(=O)O.[Cl][Pt+2][Cl] (stereo not drawn),T/C,"endpoint: median survival time, dose: 10.0 mg/kg/injection, schedule: Q04DX003 (ip), vehicle: saline",96 % of control
same,T/C,"endpoint: median survival time, dose: 20.0 mg/kg/injection, schedule: Q04DX003 (ip), vehicle: saline",106 % of control
same,T/C,"endpoint: median survival time, dose: 40.0 mg/kg/injection, schedule: Q04DX003 (ip), vehicle: saline",103 % of control and 104 % of control
same,T/C,"endpoint: median survival time, dose: 80.0 mg/kg/injection, schedule: Q04DX003 (ip), vehicle: saline",106 % of control and 109 % of control
COc1ccc(N2CC=C(c3ccccc3)OP2(=O)N(CCCl)CCCl)cc1 (stereo not drawn),T/C,"endpoint: mean survival time, dose: 31.25 mg/kg/injection, schedule: Q01DX001 (ip), vehicle: saline",102 % of control
same,T/C,"endpoint: mean survival time, dose: 62.5 mg/kg/injection, schedule: Q01DX001 (ip), vehicle: saline",100 % of control
same,T/C,"endpoint: mean survival time, dose: 125.0 mg/kg/injection, schedule: Q01DX001 (ip), vehicle: saline",100 % of control
same,T/C,"endpoint: mean survival time, dose: 250.0 mg/kg/injection, schedule: Q01DX001 (ip), vehicle: saline",100 % of control
same,T/C,"endpoint: mean survival time, dose: 500.0 mg/kg/injection, schedule: Q01DX001 (ip), vehicle: saline",100 % of control
CC(=O)C(Cl)C(=O)c1c(C)[nH]n(-c2ccccc2)c1=O (stereo not drawn),T/C,[8],112 % of control
same,T/C,[9],111 % of control
same,T/C,[10],111 % of control
O=C1C=C(C2CCCCC2)C(=O)c2ccccc21,T/C,[2],88 % of control
same,T/C,[3],98 % of control
same,T/C,[4],91 % of control
same,T/C,[5],92 % of control
same,T/C,[6],95 % of control
same,T/C,[7],95 % of control
O=C(Nc1ccc2c3c(cccc13)C=C2)c1ccccc1,T/C,[3],96 % of control
same,T/C,[5],93 % of control
same,T/C,[7],93 % of control
COc1ccc(OC)c(/C=C/c2cnnc3ccccc23)c1,T/C,"endpoint: mean survival time, dose: 18.75 mg/kg/injection, schedule: Q04DX003 (ip), vehicle: Klucel (hydroxypropylcellulose) (HPC)",102 % of control
same,T/C,"endpoint: mean survival time, dose: 37.5 mg/kg/injection, schedule: Q04DX003 (ip), vehicle: Klucel (hydroxypropylcellulose) (HPC)",104 % of control
same,T/C,"endpoint: mean survival time, dose: 75.0 mg/kg/injection, schedule: Q04DX003 (ip), vehicle: Klucel (hydroxypropylcellulose) (HPC)",114 % of control
same,T/C,"endpoint: mean survival time, dose: 150.0 mg/kg/injection, schedule: Q04DX003 (ip), vehicle: Klucel (hydroxypropylcellulose) (HPC)",104 % of control
same,T/C,"endpoint: mean survival time, dose: 300.0 mg/kg/injection, schedule: Q04DX003 (ip), vehicle: Klucel (hydroxypropylcellulose) (HPC)",108 % of control
COC1=CC2=C3[C@H](Cc4cc5c(c(c4)Oc4ccc(cc4)C[C@H]4c6cc7c(cc6CCN4C)OCC3(O7)C1=O)OCO5)N(C)CC2 (stereo partly drawn),T/C,"endpoint: mean survival time, dose: 50.0 mg/kg/injection, schedule: Q04DX003 (ip), vehicle: saline with Tween-80",96 % of control
same,T/C,[3],98 % of control
same,T/C,[5],96 % of control
O=S(=O)(O)O.[NH-]C1CCCCC1C1CCCCC1[NH-].[Pt+2] (stereo not drawn),T/C,"endpoint: mean survival time, dose: 3.12 mg/kg/injection, schedule: Q04DX003 (ip), vehicle: distilled water + Tween-80",119 % of control
same,T/C,[1],156 % of control
Cc1cc(NC(=S)SCc2ccc3c(c2)OCO3)ccc1Cl,T/C,"endpoint: median survival time, dose: 12.5 mg/kg/injection, schedule: Q01DX009 (ip), vehicle: Klucel (hydroxypropylcellulose) (HPC)",108 % of control
same,T/C,"endpoint: median survival time, dose: 25.0 mg/kg/injection, schedule: Q01DX009 (ip), vehicle: Klucel (hydroxypropylcellulose) (HPC)",100 % of control and 106 % of control and 110 % of control
same,T/C,"endpoint: median survival time, dose: 50.0 mg/kg/injection, schedule: Q01DX009 (ip), vehicle: Klucel (hydroxypropylcellulose) (HPC)",112 % of control and 113 % of control and 106 % of control
same,T/C,"endpoint: median survival time, dose: 100.0 mg/kg/injection, schedule: Q01DX009 (ip), vehicle: Klucel (hydroxypropylcellulose) (HPC)",114 % of control
same,T/C,"endpoint: median survival time, dose: 200.0 mg/kg/injection, schedule: Q01DX009 (ip), vehicle: Klucel (hydroxypropylcellulose) (HPC)",120 % of control
Nc1cc(Cl)c2ncn(C3OC(CO)C(O)C3O)c2n1 (stereo not drawn),T/C,"endpoint: mean survival time, dose: 50.0 mg/kg/injection, schedule: Q01DX009 (ip), vehicle: saline",107 % of control
same,T/C,"endpoint: mean survival time, dose: 100.0 mg/kg/injection, schedule: Q01DX009 (ip), vehicle: saline",104 % of control
same,T/C,"endpoint: mean survival time, dose: 200.0 mg/kg/injection, schedule: Q01DX009 (ip), vehicle: saline",104 % of control
O=C(OCC(OC(=O)c1ccccc1)C1OC(OC(=O)c2ccccc2)C(OC(=O)c2ccccc2)C1OC(=O)c1ccccc1)c1ccccc1 (stereo not drawn),T/C,"endpoint: mean survival time, dose: 100.0 mg/kg/injection, schedule: Q01DX001 (ip), vehicle: Klucel (hydroxypropylcellulose) (HPC)",88 % of control
same,T/C,"endpoint: mean survival time, dose: 200.0 mg/kg/injection, schedule: Q01DX001 (ip), vehicle: Klucel (hydroxypropylcellulose) (HPC)",95 % of control
same,T/C,"endpoint: mean survival time, dose: 400.0 mg/kg/injection, schedule: Q01DX001 (ip), vehicle: Klucel (hydroxypropylcellulose) (HPC)",95 % of control
N=[N+]=CC(=O)CC(N)C(=O)O (stereo not drawn),T/C,"endpoint: median survival time, dose: 400.0 mg/kg/injection, schedule: Q01DX001 (ip), vehicle: saline",111 % of control
same,T/C,"endpoint: median survival time, dose: 800.0 mg/kg/injection, schedule: Q01DX001 (ip), vehicle: saline",112 % of control
same,T/C,"endpoint: median survival time, dose: 1600.0 mg/kg/injection, schedule: Q01DX001 (ip), vehicle: saline",25 % of control
